Data taken from ChEMBL document CHEMBL3885861, “Open TG-GATES”.

Species: Rattus norvegicus
Test: Open TG-GATES - Regimen: Single
Format: toxicity, organism-based, Sprague-Dawley
Design: regimen Single, gender Male, age 6 weeks
Settings: in vivo, po, 100 mg/kg, route gavage, dose level High; for APTT / Bas / Eos / Fbg / Hb / Ht / Lym / MCH / MCHC / MCV / Mono / Neu / PT / Plat / RBC / Ret / WBC: tissue Blood; for KIDNEY_L / KIDNEY_R / KIDNEY_TOTAL: tissue Kidney; for LIVER: tissue Liver; for A/G / ALP / ALT / AST / BUN / CRE / Ca / Cl / DBIL / GLC / IP / K / LDH / Na / PL / RALB / TBIL / TC / TG / TP / gamma-GTP: tissue Plasma

Structure (SMILES): CC1=C(/C=C/C(C)=C/C=C/C(C)=C/CO)C(C)(C)CCC1 [RETINOL]
- TERMINAL_BW (3 h): 201.1 g
- APTT (3 h): 21.6 s
- Bas (3 h): 0%
- Eos (3 h): 1%
- Fbg (3 h): 312.4 mg/dL
- Hb (3 h): 13.3 g/dL
- Ht (3 h): 38.7%
- Lym (3 h): 77.2%
- MCH (3 h): 21.4 pg
- MCHC (3 h): 34.5%
- MCV (3 h): 62 fL
- Mono (3 h): 2.6%
- Neu (3 h): 19%
- PT (3 h): 15.7 s
- Plat (3 h): 117.7 x10_4/uL
- RBC (3 h): 625.8 x10_4/ul
- Ret (3 h): 8%
- WBC (3 h): 79.7 x10_2/uL
- KIDNEY_L (3 h): 0.9 g
- KIDNEY_R (3 h): 0.9 g
- KIDNEY_TOTAL (3 h): 1.8 g
- LIVER (3 h): 9.1 g
- A/G (3 h): 1.4
- ALP (3 h): 1910.2 IU/L
- ALT (3 h): 46 IU/L
- AST (3 h): 77 IU/L
- BUN (3 h): 13.6 mg/dL
- CRE (3 h): 0.2 mg/dL
- Ca (3 h): 11 mg/dL
- Cl (3 h): 106.2 meq/L
- DBIL (3 h): 0 mg/dL
- GLC (3 h): 182 mg/dL
- IP (3 h): 9.4 mg/dL
- K (3 h): 4 meq/L
- LDH (3 h): 219.2 IU/L
- Na (3 h): 141.2 meq/L
- PL (3 h): 157.4 mg/dL
- RALB (3 h): 3.2 g/dL
- TBIL (3 h): 0.006 mg/dL
- TC (3 h): 77 mg/dL
- TG (3 h): 153 mg/dL
- TP (3 h): 5.6 g/dL
- gamma-GTP (3 h): 1.6 IU/L
- TERMINAL_BW (6 h): 205.2 g
- APTT (6 h): 20.3 s
- Bas (6 h): 0%
- Eos (6 h): 1%
- Fbg (6 h): 292.8 mg/dL
- Hb (6 h): 13.2 g/dL
- Ht (6 h): 38.6%
- Lym (6 h): 73.8%
- MCH (6 h): 21.1 pg
- MCHC (6 h): 34.2%
- MCV (6 h): 61.8 fL
- Mono (6 h): 4.8%
- Neu (6 h): 19.8%
- PT (6 h): 15 s
- Plat (6 h): 120.3 x10_4/uL
- RBC (6 h): 625.6 x10_4/ul
- Ret (6 h): 7.8%
- WBC (6 h): 110 x10_2/uL
- KIDNEY_L (6 h): 0.9 g
- KIDNEY_R (6 h): 0.9 g
- KIDNEY_TOTAL (6 h): 1.8 g
- LIVER (6 h): 9 g
- A/G (6 h): 1.3
- ALP (6 h): 1660.6 IU/L
- ALT (6 h): 37.6 IU/L
- AST (6 h): 74 IU/L
- BUN (6 h): 10.6 mg/dL
- CRE (6 h): 0.1 mg/dL
- Ca (6 h): 11.3 mg/dL
- Cl (6 h): 105.8 meq/L
- DBIL (6 h): 0.006 mg/dL
- GLC (6 h): 190.4 mg/dL
- IP (6 h): 10.6 mg/dL
- K (6 h): 4.3 meq/L
- LDH (6 h): 212.4 IU/L
- Na (6 h): 141.8 meq/L
- PL (6 h): 147.8 mg/dL
- RALB (6 h): 3.1 g/dL
- TBIL (6 h): 0.016 mg/dL
- TC (6 h): 71.8 mg/dL
- TG (6 h): 118 mg/dL
- TP (6 h): 5.4 g/dL
- gamma-GTP (6 h): 1 IU/L
- TERMINAL_BW (9 h): 198.4 g
- APTT (9 h): 21.5 s
- Bas (9 h): 0%
- Eos (9 h): 0.8%
- Fbg (9 h): 288.4 mg/dL
- Hb (9 h): 12.8 g/dL
- Ht (9 h): 36.9%
- Lym (9 h): 72.4%
- MCH (9 h): 21.3 pg
- MCHC (9 h): 34.7%
- MCV (9 h): 61.4 fL
- Mono (9 h): 3.2%
- Neu (9 h): 22.6%
- PT (9 h): 15.5 s
- Plat (9 h): 124.3 x10_4/uL
- RBC (9 h): 601 x10_4/ul
- Ret (9 h): 7.6%
- WBC (9 h): 96.3 x10_2/uL
- KIDNEY_L (9 h): 0.9 g
- KIDNEY_R (9 h): 0.9 g
- KIDNEY_TOTAL (9 h): 1.9 g
- LIVER (9 h): 8.8 g
- A/G (9 h): 1.4
- ALP (9 h): 1745.2 IU/L
- ALT (9 h): 35.2 IU/L
- AST (9 h): 69.2 IU/L
- BUN (9 h): 9.6 mg/dL
- CRE (9 h): 0.1 mg/dL
- Ca (9 h): 11 mg/dL
- Cl (9 h): 106.4 meq/L
- DBIL (9 h): 0.014 mg/dL
- GLC (9 h): 179.6 mg/dL
- IP (9 h): 10.7 mg/dL
- K (9 h): 4.3 meq/L
- LDH (9 h): 219.6 IU/L
- Na (9 h): 141.2 meq/L
- PL (9 h): 129.2 mg/dL
- RALB (9 h): 3.1 g/dL
- TBIL (9 h): 0.016 mg/dL
- TC (9 h): 65.6 mg/dL
- TG (9 h): 91.2 mg/dL
- TP (9 h): 5.3 g/dL
- gamma-GTP (9 h): 1 IU/L
- TERMINAL_BW (24 h): 207.3 g
- APTT (24 h): 23.2 s
- Bas (24 h): 0%
- Eos (24 h): 0.8%
- Fbg (24 h): 303.6 mg/dL
- Hb (24 h): 13.3 g/dL
- Ht (24 h): 38.7%
- Lym (24 h): 79.2%
- MCH (24 h): 21.2 pg
- MCHC (24 h): 34.3%
- MCV (24 h): 61.9 fL
- Mono (24 h): 2.2%
- Neu (24 h): 16.8%
- PT (24 h): 16 s
- Plat (24 h): 117.6 x10_4/uL
- RBC (24 h): 627 x10_4/ul
- Ret (24 h): 7.3%
- WBC (24 h): 93.1 x10_2/uL
- KIDNEY_L (24 h): 0.9 g
- KIDNEY_R (24 h): 0.9 g
- KIDNEY_TOTAL (24 h): 1.8 g
- LIVER (24 h): 9.6 g
- A/G (24 h): 1.2
- ALP (24 h): 1815.8 IU/L
- ALT (24 h): 47.2 IU/L
- AST (24 h): 79 IU/L
- BUN (24 h): 14.2 mg/dL
- CRE (24 h): 0.2 mg/dL
- Ca (24 h): 10.8 mg/dL
- Cl (24 h): 106.2 meq/L
- DBIL (24 h): 0.004 mg/dL
- GLC (24 h): 193.4 mg/dL
- IP (24 h): 7.4 mg/dL
- K (24 h): 4 meq/L
- LDH (24 h): 242.4 IU/L
- Na (24 h): 140.2 meq/L
- PL (24 h): 144 mg/dL
- RALB (24 h): 3 g/dL
- TBIL (24 h): 0.006 mg/dL
- TC (24 h): 68.8 mg/dL
- TG (24 h): 155.2 mg/dL
- TP (24 h): 5.5 g/dL
- gamma-GTP (24 h): 1.8 IU/L
